Assay [1] has as its target T1, WT 5-HT3A receptor (Mus musculus, UniProt P23979).
T1 construct: expressed in transfected cells; host or cells: HEK293
T1 sequence (P23979 24-483 isoform P23979-2 limits assumed): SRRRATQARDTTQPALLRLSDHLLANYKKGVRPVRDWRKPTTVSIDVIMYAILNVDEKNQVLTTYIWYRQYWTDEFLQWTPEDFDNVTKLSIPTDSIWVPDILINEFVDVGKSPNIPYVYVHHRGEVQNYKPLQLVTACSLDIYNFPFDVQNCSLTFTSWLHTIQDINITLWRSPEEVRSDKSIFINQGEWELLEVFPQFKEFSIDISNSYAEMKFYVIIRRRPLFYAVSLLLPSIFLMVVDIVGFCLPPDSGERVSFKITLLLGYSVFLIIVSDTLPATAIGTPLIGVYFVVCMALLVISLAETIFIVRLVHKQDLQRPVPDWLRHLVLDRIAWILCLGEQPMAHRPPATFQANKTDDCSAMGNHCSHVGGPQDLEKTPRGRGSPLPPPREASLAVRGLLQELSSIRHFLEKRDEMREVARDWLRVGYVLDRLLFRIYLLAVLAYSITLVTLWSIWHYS
Briefly: [3H]GR65630 saturation binding, WT receptor, HEK293 cell membranes. Particulars: mean and SEM, n ≥ 3. On the procedure:
(§1) The mouse 5-HT3A cDNA (Q6J1J7) in pcDNA3.1 (for HEK cell transfection) or pGEMHE (for RNA production) was modified by QuikChange site-directed mutagenesis (Agilent Technologies) to create point mutants (verified by sequencing).
(§2) Human embryonic kidney (HEK) 293 cells were maintained at 37 °C at 5% CO2 in a humidified atmosphere, in Dulbecco's Modified Eagle's Medium/Nutrient Mix F12 (1:1) (Invitrogen, Paisley, UK) with GlutaMAX^TM and 10% fetal bovine serum (GE Healthcare) (DMEM/FBS) and passaged when confluent. Five micrograms of WT or mutant 5-HT3A DNA and 30 μl polyethyleneamine (Polysciences) incubated for 10 min in 1 mL DMEM was added to 60% confluent HEK293 cells for transfection, and cells grown for 2 days before assays.
(§3) This was performed as previously described. Lummis and Thompson ([2013]) Briefly receptors in crude HEK293 cell membranes were labeled with the 5-HT3R antagonist [^3H]GR65630 by incubation in 0.5 mL 10 mM HEPES buffer pH 7.5 for 1 h on ice, using 1 μM quipazine to determine non-specific binding. Data were analyzed in GraphPad Prism by iterative curve fitting.

Assay [2] addresses T2, 5-HT3A receptor D238A (Mus musculus, UniProt P23979, D265A).
T2 sequence (P23979 24-489 D265A): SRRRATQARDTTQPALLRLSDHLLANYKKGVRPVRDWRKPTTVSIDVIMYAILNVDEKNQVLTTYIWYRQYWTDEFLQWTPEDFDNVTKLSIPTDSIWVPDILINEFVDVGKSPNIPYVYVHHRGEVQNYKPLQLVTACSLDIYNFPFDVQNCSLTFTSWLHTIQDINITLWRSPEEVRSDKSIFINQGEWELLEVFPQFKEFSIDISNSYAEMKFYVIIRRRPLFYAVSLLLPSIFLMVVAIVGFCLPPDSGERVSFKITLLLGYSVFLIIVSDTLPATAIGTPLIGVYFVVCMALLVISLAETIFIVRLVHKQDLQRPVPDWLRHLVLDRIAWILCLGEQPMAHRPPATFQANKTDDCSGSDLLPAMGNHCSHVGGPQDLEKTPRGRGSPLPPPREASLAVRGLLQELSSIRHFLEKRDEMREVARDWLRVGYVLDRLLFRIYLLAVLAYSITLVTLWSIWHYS
Briefly: [3H]GR65630 saturation binding, D238A receptor, HEK293 cell membranes. On the set-up: expressed in transfected cells; host or cells: HEK293. Conditions: mean and SEM, n ≥ 3. The protocol: as §1, §2, §3

For assay [3], the target named is T3, 5-HT3A receptor K255L (Mus musculus, UniProt P23979, K282L).
T3 construct: expressed in transfected cells
T3 sequence (P23979 24-489 K282L): T2 sequence (P23979 24-489 D265A) with A242D, K259L
Kind of assay: [3H]GR65630 saturation binding, K255L receptor, HEK293 cell membranes. Conditions: mean and SEM, n ≥ 3. On the procedure:
as §1, §2, §3

For assay [4], the target named is T4, 5-HT3A receptor C290A (Mus musculus, UniProt P23979, C317A).
T4 sequence (P23979 24-489 C317A): T2 sequence (P23979 24-489 D265A) with A242D, C294A
Briefly: [3H]GR65630 saturation binding, C290A receptor, HEK293 cell membranes. Conditions: mean and SEM, n ≥ 3. On the set-up: expressed in transfected cells; host or cells: HEK293. On the procedure: as §1, §2, §3

Assay [5] deals with T5, 5-HT3A receptor Y441A (Mus musculus, UniProt P23979, Y468A).
T5 sequence (P23979 24-489 Y468A): T2 sequence (P23979 24-489 D265A) with A242D, Y445A
On the set-up: expressed in transfected cells; method as in Mesoy et al., [2019]. Particulars: HEK293 cells, ref Mesoy et al., [2019]; cited from earlier work.

Assay [6] has as its target T6, 5-HT3A receptor M235A (Mus musculus, UniProt P23979, M262A).
T6 construct: expressed in transfected cells; host or cells: HEK293
T6 sequence (P23979 24-489 M262A): T2 sequence (P23979 24-489 D265A) with M239A, A242D
Kind of assay: [3H]GR65630 saturation binding, M235A receptor, HEK293 cell membranes. Conditions: mean and SEM, n ≥ 3. The protocol:
as §1, §2, §3

SMILES strings stand for the structures. Residue numbers refer to the chain shown, from its start.

For `Cc1[nH]cnc1CCC(=O)c1cn(C)c2ccccc12` [[^3H]GR65630], the Bmax in assay [1] is reported as 1.2 ± 0.8 pmol/mg protein; in assay [2], 1.8 ± 0.4 pmol/mg protein; in assay [3], 0.4 ± 0.2 pmol/mg protein; in assay [4] it was 3.8 ± 0.3 pmol/mg protein; in assay [6], 2.4 ± 0.4 pmol/mg protein. In addition, the Kd in assay [1] came to 0.18 ± 0.03 nM; in assay [2] it was 0.5 ± 0.07 nM; in assay [3], 0.17 ± 0.02 nM; in assay [4], 0.85 ± 0.1 nM; in assay [6], 0.7 ± 0.09 nM. In addition, in assay [5], the “level of [3H]GR65630 binding sites” value is “high levels”.

A word on the Kd: it is the concentration at which binding is half-saturated. Read a high Kd as a looser complex.

(Values after PMC8119899, “A Single Mutation in the Outer Lipid-Facing Helix of a Pentameric Ligand-Gated Ion Channel Affects Channel Function Through a Radially-Propagating Mechanism” (Frontiers in Molecular Biosciences, 2021).)
